According to US20220145303A1, “FRAGILE X MENTAL RETARDATION PROTEIN INTERFERING OLIGONUCLEOTIDES AND METHODS OF USING SAME” (Nogra Pharma Limited, priority 2019, published 2022):

Experiments:
HCT-116 cells [1] = experiment: Cell death by AnnexinV/PI flow cytometry in HCT-116 cells; type: cell-based, human; conditions: 48 hours, AS 0.5 nM and 100 nM, FIG. 3H
Method: (§1) Cells were transfected with either FMRP antisense oligonucleotide (AS)(final concentration 0.5 nM and 100 nM) or FMRP sense oligonucleotide (S)(final concentration 100 nM). After 24 hours (FIGS. 3E, 3F, 3J and 3K) or 48 hours (FIG. 3H), cells were collected, washed two times in Annexin V (AV) buffer, stained with FITC-AnnexinV (final dilution 1:100; Immunotools, Friesoythe, Germany) according to the manufacturer's instructions, and incubated with […] of propidium iodide (PI) for 30 min at 4° C. Cells were also transfected with either FMRP sense oligonucleotide or FMRP AS oligonucleotide (final concentration 100 nM) for 36 hours and analyzed for activated caspase 3 and caspase 8. As positive and negative controls, cells were treated, respectively, with staurosporin (final concentration 1 μM, Sigma-Aldrich Milan, Italy) or Q-VD-OPh (a pan-caspase inhibitor; final concentration 1 μM) (R&D Systems, Inc, Minneapolis, Minn.). Additionally, 36 hours (FIGS. 4F and 4G) or 48 hours post-transfection (FIGS. 4D and 4E), cells were pulsed with […] bromodeoxyuridine for 60 minutes, fixed in 70% cold ethanol, and stored at −20° C. for at least 3 hours. […] Fluorescence was measured using Gallios Flow Cytometer (Beckman Coulter, Life Sciences, Pasadena, Calif., USA) and analyzed using Kaluza software (Beckman Coulter). […]

caspase 3 = experiment: Activated caspase 3 by flow cytometry in CRC cells; type: cell-based, human; conditions: oligonucleotide 100 nM 36 hours, staurosporin 1 μM, FIGS. 4A, 4B
Method: Immunotools, Friesoythe, Germany) according to the manufacturer's instructions, and incubated with […] of propidium iodide (PI) for 30 min at 4° C. Cells were also transfected with either FMRP sense oligonucleotide or FMRP AS oligonucleotide (final concentration 100 nM) for 36 hours and analyzed for activated caspase 3 and caspase 8. […] Additionally, 36 hours (FIGS. 4F and 4G) or 48 hours post-transfection (FIGS. 4D and 4E), cells were pulsed with […] bromodeoxyuridine for 60 minutes, fixed in 70% cold ethanol, and stored at −20° C. for at least 3 hours. […] Fluorescence was measured using Gallios Flow Cytometer (Beckman Coulter, Life Sciences, Pasadena, Calif., USA) and analyzed using Kaluza software (Beckman Coulter). Viable cells were considered as AV^−/PI^− cells.

DLD-1 cell lines = experiment: Cell cycle distribution by bromodeoxyuridine/PI flow cytometry; type: cell-based, human; conditions: DLD-1 48 hours (FIGS. 4D, 4E); HCT-116 36 hours (FIGS. 4F, 4G); before induction of cell death
Method: as §1

RIPK1 = experiment: Western blot of RIPK1 and phospho-RIPK1 after FMRP antisense treatment; type: cell-based; conditions: human CRC cell lines, 24 hours
Method: (§2) To confirm the association of FMRP with components of the necroptosis pathway, cells were left untreated or transfected with either FMRP antisense oligonucleotide (final concentration 0.5 nM and 100 nM) or FMRP sense oligonucleotide (final concentration 100 nM); incubated with a pMLKL inhibitor (necrosulfonamide, NSA; final concentration 1 μM)(Calbiochem); or a pRIPK1 inhibitor (necrostatinl, NEC1; final concentration 10 μM)(Cayman Chemical, Ann Arbor, Mich. USA). After 24 hours cells were collected and analyzed by Western blot, or stained with FITC-Annexin V and PI for flow cytometry analysis, as previously described in Examples 1-3.

RIPK3 = experiment: Western blot of phospho-RIPK3 after FMRP antisense treatment; type: cell-based; conditions: human CRC cell lines, 24 hours, FIGS. 6A, 6C
Method: as §2

HCT-116 cells [2] = experiment: Cell migration (pseudo-wound closure) with Ibidi culture insert; type: cell-based, human; conditions: HCT-116, AS 0.5 nM, T24 and T48, vs untreated or sense, FIGS. 8A, 8B
Method: (§3) To investigate the role of FMRP in tumor cell migration and invasion, HCT-116 cells were seeded in each side of an Ibidi® culture insert and grown to confluence then left untreated (U) or transfected with sense FMRP oligonucleotide (S) (final concentration 0.5 nM) or antisense FMRP oligonucleotide (AS) (final concentration 0.5 nM). Additionally, HCT-116 cells were seeded in Transwell® inserts precoated with Matrigel®, and either left untreated (U) or transfected with sense oligonucleotide (S) (final concentration 100 nM) or antisense FMRP oligonucleotide (AS) (final concentration 0.5 nM) for 48 hours.
To determine whether MCC regulation of the E-cadherin/β-catenin complex is also required for the observed inhibition of colorectal cell line migration and invasion (e.g., FIGS. 8A and 8B), HCT-116 cells were seeded in each side of an Ibidi® culture insert and grown to confluence then left untreated (U) or transfected with sense oligonucleotide (S) (final concentration 0.5 nM) or antisense oligonucleotide (AS) (final concentration 0.5 nM) and/or siRNA Ctrl or siRNA MCC.

HCT-116 cells [3] = experiment: Invasion across Matrigel-coated Transwell inserts; type: cell-based, human; conditions: HCT-116, AS 0.5 nM, 48 hours, vs untreated or sense, FIGS. 8C, 8D
Method: as §3

β-catenin = experiment: Western blot of β-catenin in HCT-116 cells; type: cell-based, human; conditions: HCT-116, AS 0.5 nM, 48 hours, vs untreated or sense, FIGS. 8E, 8G
Method: To determine whether FMRP regulates levels of E-cadherin and/or β-catenin, key proteins associated with cellular adhesion, cytoskeletal remodeling, and inhibition of tumor migration and invasion, cells were left untreated (U), or transfected with either FMRP sense (S) oligonucleotide (final concentration 0.5 nM) or FMRP antisense (AS) oligonucleotide (final concentration 0.5 nM) for 48 hours.
Recent studies have described a novel tumor suppressor function of MCC in the regulation of E-cadherin/β-catenin complex-mediated cell-cell adhesion in colorectal cells. To investigate whether MCC mediates the observed increase of E-cadherin and β-catenin expression in HCT-116 cells transfected with antisense FMRP oligonucleotide (e.g., FIGS. 8E-8G), cells were left untreated (U) or transfected with sense FMRP oligonucleotide (final concentration 0.5 nM), or antisense FMRP oligonucleotide (final concentration 0.5 nM), and/or control siRNA (siRNA Ctrl) or siRNA specific for MCC (siRNA MCC) for 48 hours.

5′-TCCACCACCAGCTCCTCCAT-3′ (all phosphorothioate, sugars by position and methylation of C not given here) [FMRP antisense oligonucleotide, Phosphorothioate single-stranded antisense oligonucleotides complementary to human FMRP]
number of AnnexinV+ or AnnexinV+ PI+ cells (HCT-116 cells [1]): neither HCT-116 cells nor HCRC-1ct cells treated with FMRP antisense oligonucleotide exhibited an increased number | percentage of activated caspase 3-positive cells (caspase 3): did not alter | relative percentage of cells in G2/M, S, or G0/G1 cell cycle phases (DLD-1 cell lines): did not affect | total protein expression levels of RIPK1 (RIPK1; AS 0.5 nM and 100 nM, FIG. 6A): increased the total protein expression levels of RIPK1 | phosphorylation of RIPK1 (RIPK1; FIGS. 6A, 6B): increased phosphorylation | phosphorylation of RIPK3 (RIPK3): increased phosphorylation | percentage of cell-covered area (pseudo-wound) (HCT-116 cells [2]): significantly reduced the percentage of cells covering a pseudo-“wound” | number of cells migrating across Matrigel-coated Transwell insert (HCT-116 cells [3]): significantly reduced migration | β-catenin protein expression (β-catenin): significantly increased
